Patent US20180296588A1, “COMBINATION THERAPY FOR TREATING VIRAL INFECTIONS” (ContraVir Pharmaceuticals, Inc., priority 2017, published 2018)
Entries after “also recorded” stand apart in the source; their conditions may differ. Like-named read-outs stand apart in the source and are kept apart here.

Columns and labels:
[1] = system: HBV DNA replication in AD38, DES19 and DE19 cells; experiment: In vitro combination study, statements covering AD38, DES19 and DE19 cells together; assay type: cell-based, hepatitis B virus; conditions: Compound I 5-320 nM and/or Compound II 10-640 nM; FIGS. 1-3
Protocol: The antiviral activity of Compound I and Compound II towards HBV was tested in various cell lines (HepAD38, HepDE19 and HepDES19). […] Active HBV replication in the cells was suppressed by inclusion of tetracycline in the cell culture medium, which binds to a tetracycline-sensitive promoter, and induced by removal of tetracycline. HBV replication was quantified by measuring the amount of HBV DNA in the cells.
The comparison is used to determine combination scores (effect volumes) that represent either synergistic (positive scores) or antagonistic (negative scores) effects. All the positive and negative scores are summed to calculate overall synergy and antagonism scores that reflect the entire concentration spectrum of the two drugs. […]

HBV = experiment: Anti-HBV effects in the HBV transgenic mouse model; assay type: in vivo, HBV transgenic mice
Protocol: Compound I and Compound II were administered by once-daily oral gavage for 16 days to HBV transgenic mice which replicated HBV from a 1.3× overlength HBV genome integrated into the mouse genome. Expression occurred mostly in hepatocytes.
Treatment Groups (n=8/Group):
After 16 days of dosing, livers and serum were harvested and the following parameters were measured: a) HBV DNA by quantitative PCR (liver and serum) b) HBsAg by ELISA (liver and serum) c) HBeAg by ELISA (serum)

[2] = system: HBV DNA replication in DE19 cells; experiment: Inhibition of intracellular HBV DNA replication in HepDE19 cells (PCR); assay type: cell-based; conditions: Hepatitis B virus, HepDE19, read-out: IC50 for Compound II, DE19 cells
Protocol: (§1) The antiviral activity of Compound I and Compound II towards HBV was tested in various cell lines (HepAD38, HepDE19 and HepDES19). The HepAD38 cell line is derived from the HepG2 cell line and engineered to stably maintain HBV (see Ladner et al., Antimicrobial Agents and Chemotherapy, 1997, 41, 1715-1720, which is incorporated herein by reference in its entirety). DE19 and DES19 cell lines are human hepatoma derived cell lines (see Guo et al. J. Virol 2007, 81, 12472-84, which is incorporated herein by reference in its entirety). Active HBV replication in the cells was suppressed by inclusion of tetracycline in the cell culture medium, which binds to a tetracycline-sensitive promoter, and induced by removal of tetracycline. HBV replication was quantified by measuring the amount of HBV DNA in the cells.
(§2) Compound I and Compound II were applied to induced cells (i.e., cells without tetracycline), either alone or in combination at various concentrations. Next, intracellular DNA was isolated and HBV DNA was measured by polymerase chain reaction (PCR). The percent inhibition of HBV DNA was examined over the concentration ranges of 0-320 nM for Compound I and 0-640 nM for Compound II. Concentration versus effect curves were constructed for both drugs (FIGS. 1A and 1B, 2A and 2B, and 3A and 3B). […] See FIGS. 1B, 2B, and 3B (curves where [Compound II]=0).
(§3) The level of reduction in intracellular HBV DNA by the various combinations of Compound I and II as plotted in FIGS. 1 A and 1B, 2A and 2B, and 3A and 3B, was analyzed using the Shipman-Prichard synergy scoring program (MacSynergy™ II program, Prichard et al. Antiviral Research 1990), wherein the experimentally observed effect of each combination is compared to the theoretical, additive inhibition. The comparison is used to determine combination scores (effect volumes) that represent either synergistic (positive scores) or antagonistic (negative scores) effects. All the positive and negative scores are summed to calculate overall synergy and antagonism scores that reflect the entire concentration spectrum of the two drugs. The magnitude of the scores reflect the degree of synergism/antagonism and the likelihood of the synergistic/antagonistic activities being important in vivo, according to the following four categories: (1) Synergy/Antagonism Volume=0-25 (log volume <2): insignificant synergy/antagonism (i.e., only additive effects); (2) Synergy/Antagonism Volume=25-50 (log volume 2-5): minor but significant amount of synergy/antagonism; (3) Synergy/Antagonism Volume=50-100 (log volume 5-9): moderate synergy/antagonism that may be important in vivo; (4) Synergy/Antagonism Volume >100 (log volume >9): stronger synergy/antagonism that is probably important in vivo. IC50 values for Compound I in combination with different concentrations of Compound II, and Compound II in combination with different concentrations of Compound I, are presented in Tables 6 and 7, respectively.

[3] = system: HBV DNA replication in HepAD38 cells; experiment: Inhibition of intracellular HBV DNA replication in HepAD38 cells (PCR); assay type: cell-based; conditions: Hepatitis B virus, HePAD38, read-out: IC50 for Compound II, AD38 cells
Protocol: as §1, §2, §3

[4] = system: HBV DNA replication in DES19 cells; experiment: Inhibition of intracellular HBV DNA replication in HepDES19 cells (PCR); assay type: cell-based; conditions: Hepatitis B virus, HepDES19, read-out: IC50 for Compound II, DES19 cells
Protocol: as §1, §2, §3

Question: Which results are given for `CCCCCCCCCCCCCCCCOCCCOP(=O)(O)CO[C@H](C)Cn1cnc2c(N)ncnc21` [Compound II, 3-(hexadecyloxy)propyl hydrogen ((R)-1-(6-amino-9H-purin 9-yl)propan-2-yloxy)methylphosphonate]?
Answer: intracellular HBV DNA compared to induced cells in the absence of the drug [1]: reduced intracellular HBV DNA in a concentration-dependent manner; serum HBsAg (HBV; Compound II alone (5 or 10 mg/kg/day) or with low-dose Compound I (10 mg/kg/day), oral, 16 days, FIG. 7): did not affect serum HBsAg; liver HBsAg (HBV; alone or in combination, oral, 16 days, FIG. 8): did not affect; serum HBV DNA (HBV; alone or in combination, oral, 16 days, FIG. 9): did not affect; serum HBeAg (HBV; alone or in combination, oral, 16 days, FIG. 10): did not affect; liver HBV DNA (copies per mg liver) (HBV; once-daily oral gavage 16 days, Compound I 10 or 50, Compound II 5 or 10 mg/kg/day, combination 10+5, FIG. 6): decreased liver HBV DNA; also recorded: highly efficacious; IC50 ([2]; Compound I 0 nM): 253 nM; IC50 ([2]; Compound I 5 nM): 270 nM; IC50 ([2]; Compound I 10 nM): 255 nM; IC50 ([2]; Compound I 20 nM): 213 nM; IC50 ([2]; Compound I 40 nM): 237 nM; IC50 ([2]; Compound I 80 nM): 226 nM; IC50 ([2]; Compound I 160 nM): 83.9 nM; IC50 ([2]; Compound I 320 nM): 110 nM; IC50 ([3]; Compound I 0 nM): 248 nM; IC50 ([3]; Compound I 5 nM): 259 nM; IC50 ([3]; Compound I 10 nM): 255 nM; IC50 ([3]; Compound I 20 nM): 232 nM; IC50 ([3]; Compound I 40 nM): 232 nM; IC50 ([3]; Compound I 80 nM): 229 nM; IC50 ([3]; Compound I 160 nM): 104 nM; IC50 ([3]; Compound I 320 nM): 99.7 nM; IC50 ([4]; Compound I 0 nM): 252 nM; IC50 ([4]; Compound I 5 nM): 237 nM; IC50 ([4]; Compound I 10 nM): 228 nM; IC50 ([4]; Compound I 20 nM): 180 nM; IC50 ([4]; Compound I 40 nM): 190 nM; IC50 ([4]; Compound I 80 nM): 188 nM; IC50 ([4]; Compound I 160 nM): 86.6 nM; IC50 ([4]; Compound I 320 nM): 63.2 nM
